Measured values as given in patent US20190029257A1, “APPLICATION FOR HERBICIDE-TOLERANT PROTEIN” (BEIJING DABEINONG TECHNOLOGY GROUP CO., LTD., priority 2016, published 2019).

Assays:
Assay in all cases: Halosulfuron-methyl tolerance of soybean plants (damage degree)
Assay type in all cases: in vivo
[1] = test system: Gm chloroplastic ALT-1-01 soybean plants; conditions: 34 g ai/ha (1x Hal.); for Average damage % 3 DAT: 3 days after spraying; for Average damage % 7 DAT: 7 days after spraying; for Average damage % 14 DAT: 14 days after spraying; for Average damage % 21 DAT: 21 days after spraying
Text: (§1) The herbicide tolerance effects of Gm cytoplasmic ALT-1-01 soybean plants, Gm chloroplastic ALT-1-01 soybean plants, Gm cytoplasmic ALT-2-01 soybean plants, Gm chloroplastic ALT-2-01 soybean plants, Gm cytoplasmic ALT-3-01 soybean plants, Gm chloroplastic ALT-3-01 soybean plants and wild-type soybean plants on halosulfuron-methyl were detected (at seedling stage), respectively.
(§2) Gm cytoplasmic ALT-1-01 soybean plants, Gm chloroplastic ALT-1-01 soybean plants, Gm cytoplasmic ALT-2-01 soybean plants, Gm chloroplastic ALT-2-01 soybean plants, Gm cytoplasmic ALT-3-01 soybean plants, Gm chloroplastic ALT-3-01 soybean plants and wild-type soybean plants were respectively taken and sprayed with halosulfuron-methyl (34 g ai/ha, 1-fold field concentration) and a blank solvent (water). The damage degree caused by the herbicide was measured for each plant according to the leaf curl degree and the growth point damage degree 3 days after spraying (3 DAT), 7 days after spraying (7 DAT), 14 days after spraying (14 DAT) and 21 days after spraying (21 DAT), respectively: considering conditions of leaves being flat as the untreated plants and growth points being intact as having a damage degree of 0%; considering conditions of veins being locally browned, new leaves being malformed and plant growth being slow as having a damage degree of 50%; and considering conditions of veins being purple to whole plant being dead and growth points being browned and dry as having a damage degree of 100%. There were 2 strains in Gm cytoplasmic ALT-1-01 soybean plants in total (S1 and S2), 2 strains in Gm chloroplastic ALT-1-01 soybean plants in total (S3 and S4), 2 strains in Gm cytoplasmic ALT-2-01 soybean plants in total (S5 and S6), 2 strains in Gm chloroplastic ALT-2-01 soybean plants in total (S7 and S8), 2 strains in Gm cytoplasmic ALT-3-01 soybean plants in total (S9 and S10), 2 strains in Gm chloroplastic ALT-3-01 soybean plants in total (S11 and S12), and 1 strain in wild-type soybean plants (CK1) in total; and 10-15 plants were selected from each strain and tested.

[2] = test system: Gm chloroplastic ALT-2-01 soybean plants; conditions: 34 g ai/ha (1x Hal.); for Average damage % 3 DAT: 3 days after spraying; for Average damage % 7 DAT: 7 days after spraying; for Average damage % 14 DAT: 14 days after spraying; for Average damage % 21 DAT: 21 days after spraying
Text: as §1, §2

[3] = test system: Gm cytoplasmic ALT-2-01 soybean plants; conditions: 34 g ai/ha (1x Hal.); for Average damage % 3 DAT: 3 days after spraying; for Average damage % 7 DAT: 7 days after spraying; for Average damage % 14 DAT: 14 days after spraying; for Average damage % 21 DAT: 21 days after spraying
Text: as §1, §2

[4] = test system: Gm cytoplasmic ALT-1-01 soybean plants; conditions: 34 g ai/ha (1x Hal.); for Average damage % 3 DAT: 3 days after spraying; for Average damage % 7 DAT: 7 days after spraying; for Average damage % 14 DAT: 14 days after spraying; for Average damage % 21 DAT: 21 days after spraying
Text: as §1, §2

[5] = test system: Gm cytoplasmic ALT-3-01 soybean plants; conditions: 34 g ai/ha (1-fold field concentration); for Average damage % 3 DAT: 3 days after spraying; for Average damage % 7 DAT: 7 days after spraying; for Average damage % 14 DAT: 14 days after spraying; for Average damage % 21 DAT: 21 days after spraying
Text: as §1, §2

COC(=O)c1c(Cl)nn(C)c1S(=O)(=O)NC(=O)Nc1nc(OC)cc(OC)n1 [halosulfuron-methyl, 3-chlorine-5-(4,6-dimethoxypyrimidine-2-aminocarbonylaminosulphonyl)-1-methylpyrazole-4-carboxylic acid methyl ester]
5%: Average damage % 7 DAT ([1]; strain S3) | Average damage % 7 DAT ([1]; strain S4) | Average damage % 7 DAT ([2]; strain S8) | Average damage % 7 DAT ([5]; strain S10)
14%: Average damage % 3 DAT ([3]; strain S5)
4%: Average damage % 7 DAT ([2]; strain S7)
0%: Average damage % 14 DAT ([1]; strain S3) | Average damage % 21 DAT ([1]; strain S3) | Average damage % 14 DAT ([1]; strain S4) | Average damage % 21 DAT ([1]; strain S4) | Average damage % 14 DAT ([2]; strain S7) | Average damage % 21 DAT ([2]; strain S7) | Average damage % 14 DAT ([2]; strain S8) | Average damage % 21 DAT ([2]; strain S8) | Average damage % 14 DAT ([3]; strain S5) | Average damage % 21 DAT ([3]; strain S5) | Average damage % 14 DAT ([3]; strain S6) | Average damage % 21 DAT ([3]; strain S6) | Average damage % 14 DAT ([4]; strain S1) | Average damage % 21 DAT ([4]; strain S1) | Average damage % 14 DAT ([4]; strain S2) | Average damage % 21 DAT ([4]; strain S2) | Average damage % 14 DAT ([5]; strain S9) | Average damage % 21 DAT ([5]; strain S9) | Average damage % 14 DAT ([5]; strain S10) | Average damage % 21 DAT ([5]; strain S10)
10%: Average damage % 3 DAT ([1]; strain S3) | Average damage % 3 DAT ([2]; strain S7)
9%: Average damage % 3 DAT ([2]; strain S8)
7%: Average damage % 7 DAT ([4]; strain S1)
12%: Average damage % 3 DAT ([3]; strain S6) | Average damage % 3 DAT ([4]; strain S2) | Average damage % 3 DAT ([5]; strain S10)
13%: Average damage % 3 DAT ([4]; strain S1) | Average damage % 3 DAT ([5]; strain S9)
11%: Average damage % 3 DAT ([1]; strain S4)
6%: Average damage % 7 DAT ([3]; strain S5) | Average damage % 7 DAT ([3]; strain S6) | Average damage % 7 DAT ([4]; strain S2) | Average damage % 7 DAT ([5]; strain S9)
